{"source": "patent US20240050502A1", "about": "“AMANITA MUSCARIA COMPOUNDS” (priority 2020, published 2024)", "origin": "cited, not measured here", "key": {"mice": {"system": "mice", "details": "for LD50: intravenous administration in mice"}, "[1]": {"details": "in vivo"}, "monkey": {"system": "monkey", "details": "quantity many times that which would cause poisoning by ingestion of Amanita muscaria in the human"}, "[2]": {"system": "inflammatory pain induced by formalin", "details": "mice"}}}
{"compound": "N[C@H](C(=O)O)c1cc(=O)[nH]o1", "note": "[ibotenic acid]", "values": [{"measurement": "LD50", "setting": "mice", "result": 15, "unit": "mg/kg"}, {"measurement": "oral LD50", "setting": "mice; oral, mice", "result": 38, "unit": "mg/kg"}, {"measurement": "minimum dose needed to obtain psychedelic effects", "setting": "[1]", "result": "30 to 60", "unit": "mg"}]}
{"compound": "C[C@@H]1O[C@H](C[N+](C)(C)C)C[C@H]1O", "note": "[muscarine]", "values": [{"measurement": "activity by mouth", "setting": "monkey", "result": "inactive"}]}
{"compound": "NCc1cc(=O)[nH]o1", "note": "[muscimol]", "values": [{"measurement": "LD50", "setting": "mice", "result": 5.62, "unit": "mg/kg"}, {"measurement": "dose at which central nervous system intoxication occurs", "setting": "[1]", "result": 6.0, "unit": "mg"}]}
{"compound": "fucomannogalactan", "values": [{"measurement": "inflammatory pain induced by formalin", "setting": "[2]", "result": "significantly reduced"}]}
{"compound": "β(1→6)-branched (1→3)-β-d-glucan", "values": [{"measurement": "antitumor activity against sarcoma 180 tumors", "setting": "sarcoma 180 tumors; mice", "result": "significant antitumor activity"}, {"measurement": "antitumor effect when mixed with mitomycin C", "setting": "sarcoma 180 tumors; mixed with the chemotherapy drug mitomycin C", "result": "greater than that of mitomycin C alone"}]}
